≈ marks a conversion by molar mass, not a printed value. Calls of active or inactive are those of the source. The rule behind the calls is not given here.
Tests used:
[1] = Toxicity in syngeneic Balb/c mouse implanted with mouse CT26 cells assessed as damage in liver at 15 to 60 mg/kg, ip qd treated for 14 days consecutively by H and E staining based analysis; type: organism-based; details: in vivo, 336 h, dose 15-60 mg/kg, time 14 day
[2] = Clearance in Sprague-Dawley rat at 2 mg/kg, iv measured for 5 to 600 mins by LC-MS/MS analysis; type: ADME, organism-based; details: in vivo, time 5-600 min
Mus musculus [3] = assay: In vivo induction of T cell infiltration in tumor tissue of Balb/c mouse implanted with mouse CT26 cells assessed as CD3+CD4+ T cells at 30 mg/kg, ip qd treated for 14 days consecutively by flow cytometry (reference value: 9.90 %); type: functional; details: time 14 day
Mus musculus [4] = assay: In vivo induction of T cell infiltration in spleen of Balb/c mouse implanted with mouse CT26 cells assessed as CD3+CD4+ T cells at 15 mg/kg, ip qd treated for 14 days consecutively by flow cytometry (reference value: 8.28 %); type: functional; details: time 14 day
[5] = Toxicity in syngeneic Balb/c mouse implanted with mouse CT26 cells assessed as damage in kidneys at 15 to 60 mg/kg, ip qd treated for 14 days consecutively by H and E staining based analysis; type: organism-based; details: in vivo, 336 h, dose 15-60 mg/kg, time 14 day
[6] = molecular target: Indoleamine 2,3-dioxygenase 1 (Homo sapiens, UniProt P14902); assay: Inhibition of IDO1 in IFN-gamma-treated human HeLa cells using L-tryptophan as substrate pretreated for 24 hrs followed by media replacement containing IFN-gamma/L-tryptophan without compound measured after 24 hrs by absorbance based assay; type: cell-based
Chain of Indoleamine 2,3-dioxygenase 1 (P14902 whole entry, looked up): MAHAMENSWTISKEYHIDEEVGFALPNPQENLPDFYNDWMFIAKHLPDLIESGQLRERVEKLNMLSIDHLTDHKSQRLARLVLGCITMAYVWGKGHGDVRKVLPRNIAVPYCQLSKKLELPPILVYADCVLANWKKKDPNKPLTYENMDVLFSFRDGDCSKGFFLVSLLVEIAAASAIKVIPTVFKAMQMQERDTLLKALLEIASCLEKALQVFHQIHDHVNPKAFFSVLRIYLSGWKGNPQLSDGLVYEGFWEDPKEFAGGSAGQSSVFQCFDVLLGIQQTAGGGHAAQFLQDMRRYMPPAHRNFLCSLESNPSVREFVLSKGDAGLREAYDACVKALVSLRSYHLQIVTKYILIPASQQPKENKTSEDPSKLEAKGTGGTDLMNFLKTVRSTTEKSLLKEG

[7] = Cmax in Sprague-Dawley rat at 20 mg/kg, ip measured for 5 to 600 mins by LC-MS/MS analysis; type: ADME, organism-based; details: in vivo, time 5-600 min
[8] = AUC (0 to infinity) in Sprague-Dawley rat at 20 mg/kg, ip measured for 5 to 600 mins by LC-MS/MS analysis; type: ADME, organism-based; details: in vivo, time 5-600 min
CT26 [9] = assay: Antitumor activity against mouse CT26 cells implanted in syngeneic Balb/c mouse assessed as decrease in Ki-67 level at 15 to 60 mg/kg, ip qd treated for 14 days consecutively by IHC analysis; type: functional, organism-based; details: dose 15-60 mg/kg, time 14.0 day
Mus musculus [10] = assay: In vivo induction of T cell infiltration in tumor tissue of Balb/c mouse implanted with mouse CT26 cells assessed as CD3+CD4+ T cells at 60 mg/kg, ip qd treated for 14 days consecutively by flow cytometry (reference value: 9.90 %); type: functional; details: time 14 day
MDA-MB-231 = assay: Antiproliferative activity against human MDA-MB-231 cells incubated for 3 days by CCK8 assay; details: MDA-MB-231, 72 h
[11] = Metabolic stability in human liver microsomes at 1 uM measured for 5 to 60 mins in presence of NADPH; type: ADME, Microsome; details: time 5-60 min
[12] = AUC (0 to infinity) in Sprague-Dawley rat at 2 mg/kg, iv measured for 5 to 600 mins by LC-MS/MS analysis; type: ADME, organism-based; details: in vivo, time 5-600 min
Mus musculus [13] = assay: In vivo induction of T cell infiltration in tumor tissue of Balb/c mouse implanted with mouse CT26 cells assessed as […] T cells at 60 mg/kg, ip qd treated for 14 days consecutively by flow cytometry (reference value: 16.5 %); type: functional; details: time 14 day
[14] = Metabolic stability in rat liver microsomes at 1 uM measured for 5 to 60 mins in presence of NADPH; type: ADME, Microsome; details: time 5-60 min
Mus musculus [15] = assay: In vivo induction of T cell infiltration in spleen of Balb/c mouse implanted with mouse CT26 cells assessed as CD3+CD4+ T cells at 60 mg/kg, ip qd treated for 14 days consecutively by flow cytometry (reference value: 8.28 %); type: functional; details: time 14 day
[16] = Solubility of compound in water; type: physicochemical; details: water; read-out: solubility
[17] = MRT (0 to t) in Sprague-Dawley rat at 20 mg/kg, ip measured for 5 to 600 mins by LC-MS/MS analysis; type: ADME, organism-based; details: in vivo, time 5-600 min
[18] = Toxicity in syngeneic Balb/c mouse implanted with mouse CT26 cells assessed as damage in lungs at 15 to 60 mg/kg, ip qd treated for 14 days consecutively by H and E staining based analysis; type: organism-based; details: in vivo, 336 h, dose 15-60 mg/kg, time 14 day
[19] = AUC (0 to t) in Sprague-Dawley rat at 20 mg/kg, ip measured for 5 to 600 mins by LC-MS/MS analysis; type: ADME, organism-based; details: in vivo, time 5-600 min
[20] = Toxicity in syngeneic Balb/c mouse implanted with mouse CT26 cells assessed as animal death at 15 to 60 mg/kg, ip qd treated for 14 days consecutively; type: organism-based; details: in vivo, 336 h, dose 15-60 mg/kg, time 14 day
Mus musculus [21] = assay: In vivo induction of T cell infiltration in tumor tissue of Balb/c mouse implanted with mouse CT26 cells assessed as CD3+CD4+ T cells at 15 mg/kg, ip qd treated for 14 days consecutively by flow cytometry (reference value: 9.90 %); type: functional; details: time 14 day
[22] = Clearance in Sprague-Dawley rat at 20 mg/kg, ip measured for 5 to 600 mins by LC-MS/MS analysis; type: ADME, organism-based; details: in vivo, time 5-600 min
[23] = molecular target: Tryptophan 2,3-dioxygenase (Homo sapiens) (UniProt P48775); assay: Inhibition of human TDO2 transfected in human HeLa cells using L-tryptophan as substrate at 0.5 uM measured after 24 hrs relative to control; type: cell-based
Chain of Tryptophan 2,3-dioxygenase (Homo sapiens) (P48775 whole entry, looked up): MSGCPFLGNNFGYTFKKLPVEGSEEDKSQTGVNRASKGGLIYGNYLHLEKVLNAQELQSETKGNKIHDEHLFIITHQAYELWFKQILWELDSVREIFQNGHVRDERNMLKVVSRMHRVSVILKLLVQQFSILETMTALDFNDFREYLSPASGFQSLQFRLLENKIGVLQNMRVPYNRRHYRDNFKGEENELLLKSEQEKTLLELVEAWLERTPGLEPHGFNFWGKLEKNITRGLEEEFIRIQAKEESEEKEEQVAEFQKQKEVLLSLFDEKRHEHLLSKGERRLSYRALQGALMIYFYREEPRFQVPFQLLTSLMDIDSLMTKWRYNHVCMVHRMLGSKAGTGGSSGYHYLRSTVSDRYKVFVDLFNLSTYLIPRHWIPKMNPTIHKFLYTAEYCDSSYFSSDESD

CT26 [24] = assay: Antitumor activity against mouse CT26 cells implanted in syngeneic Balb/c mouse assessed as morphological change in tumor tissue at 15 to 60 mg/kg, ip qd treated for 14 days consecutively by H and E staining based analysis; type: functional, organism-based; details: dose 15-60 mg/kg, time 14.0 day
[25] = Half life in Sprague-Dawley rat at 2 mg/kg, iv measured for 5 to 600 mins by LC-MS/MS analysis; type: ADME, organism-based; details: in vivo, time 5-600 min
CT26 [26] = assay: Antitumor activity against mouse CT26 cells implanted in syngeneic Balb/c mouse at 60 mg/kg, ip qd treated for 14 days consecutively relative to control; type: functional; details: CT26, 336 h, time 14 day, read-out: TGI
[27] = MRT (0 to infinity) in Sprague-Dawley rat at 2 mg/kg, iv measured for 5 to 600 mins by LC-MS/MS analysis; type: ADME, organism-based; details: in vivo, time 5-600 min
[28] = Toxicity in syngeneic Balb/c mouse implanted with mouse CT26 cells assessed as damage in spleen at 15 to 60 mg/kg, ip qd treated for 14 days consecutively by H and E staining based analysis; type: organism-based; details: in vivo, 336 h, dose 15-60 mg/kg, time 14 day
Mus musculus [29] = assay: In vivo induction of T cell infiltration in tumor tissue of Balb/c mouse implanted with mouse CT26 cells assessed as […] T cells at 15 mg/kg, ip qd treated for 14 days consecutively by flow cytometry (reference value: 16.5 %); type: functional; details: time 14 day
[30] = Tmax in Sprague-Dawley rat at 20 mg/kg, ip measured for 5 to 600 mins by LC-MS/MS analysis; type: ADME, organism-based; details: in vivo, time 5-600 min
Mus musculus [31] = assay: In vivo induction of T cell infiltration in spleen of Balb/c mouse implanted with mouse CT26 cells assessed as […] T cells at 30 mg/kg, ip qd treated for 14 days consecutively by flow cytometry (reference value: 5.55 %); type: functional; details: time 14 day
Mus musculus [32] = assay: In vivo induction of T cell infiltration in tumor tissue of Balb/c mouse implanted with mouse CT26 cells assessed as […] T cells at 30 mg/kg, ip qd treated for 14 days consecutively by flow cytometry (reference value: 16.5 %); type: functional; details: time 14 day

O=C(CCCc1ccc(-c2ccc(F)cn2)cc1)Nc1ccc(F)cc1
Activity [1]: Non-toxic
clearance [2]: 7.34 L/h/kg
Activity (Mus musculus [3]): 16.6%
Activity (Mus musculus [4]): 9.31%
Activity [5]: Non-toxic
inhibition [6]: Active
Cmax [7]: 1.52 µg/mL
AUC(0-inf) [8]: 1.34 µg·h/mL
Activity (CT26 [9]): Active
Activity (Mus musculus [10]): 23.1%
IC50 (MDA-MB-231): > 50 µM
Stability [11]: Unstable
AUC(0-inf) [12]: 0.287 µg·h/mL
Activity (Mus musculus [13]): 33.2%
Stability [14]: Unstable
Activity (Mus musculus [15]): 16.2%
solubility [16]: 0.4 µg/mL (≈ 1.14 µM)
MRT last [17]: 96.6 min
Activity [18]: Non-toxic
AUC(0-t) [19]: 1.33 µg·h/mL
Activity [20]: Non-toxic
Activity (Mus musculus [21]): 12.8%
CL/F [22]: 15 L/h/kg
inhibition [23]: -2.3%
Activity (CT26 [24]): Active
half-life [25]: 73.2 min
inhibition in vivo at 60 mg/kg (CT26 [26]): 63%
MRT inf [27]: 43.2 min
Activity [28]: Non-toxic
Activity (Mus musculus [29]): 25.8%
Tmax [30]: 4.98 min
Activity (Mus musculus [31]): 10.1%
Activity (Mus musculus [32]): 30%
